According to paper PMC7803973, “Structural basis of malaria parasite phenylalanine tRNA-synthetase inhibition by bicyclic azetidines” (Nature Communications, 2021):
“And” between values parts separate entries of the source, which are not always exact repeats. Identical values can stand only once. “Also recorded” adds a separate entry of the source.

Tests used:
PfcFRS = biological target: T1, PfcFRS (Plasmodium falciparum, UniProt Q8I246); assay: PfcFRS mode of inhibition study (malachite green); assay type: biochemical; details: for 1/v (0.5 × IC50 ): inhibitor 0.5 × IC50; for 1/V (1 × IC50 ) / 1/v (1 × IC50 ): inhibitor 1 × IC50
T1 sequence (Q8I246 1-575): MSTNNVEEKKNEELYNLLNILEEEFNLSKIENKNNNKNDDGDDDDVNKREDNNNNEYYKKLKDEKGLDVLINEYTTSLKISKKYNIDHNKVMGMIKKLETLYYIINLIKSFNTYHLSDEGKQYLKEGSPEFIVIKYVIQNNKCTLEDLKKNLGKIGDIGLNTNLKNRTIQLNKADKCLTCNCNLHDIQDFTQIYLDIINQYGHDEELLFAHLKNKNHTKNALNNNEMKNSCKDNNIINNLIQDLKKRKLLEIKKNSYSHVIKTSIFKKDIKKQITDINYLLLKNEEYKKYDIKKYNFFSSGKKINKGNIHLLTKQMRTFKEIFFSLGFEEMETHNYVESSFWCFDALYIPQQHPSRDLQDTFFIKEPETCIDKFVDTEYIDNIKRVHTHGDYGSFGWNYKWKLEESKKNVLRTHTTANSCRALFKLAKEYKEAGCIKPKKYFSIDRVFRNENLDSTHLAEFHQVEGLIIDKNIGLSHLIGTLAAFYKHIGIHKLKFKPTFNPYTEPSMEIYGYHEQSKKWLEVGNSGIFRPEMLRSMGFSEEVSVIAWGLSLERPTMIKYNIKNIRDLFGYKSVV
T1 sequence (Q8IIW2 1-623 partner): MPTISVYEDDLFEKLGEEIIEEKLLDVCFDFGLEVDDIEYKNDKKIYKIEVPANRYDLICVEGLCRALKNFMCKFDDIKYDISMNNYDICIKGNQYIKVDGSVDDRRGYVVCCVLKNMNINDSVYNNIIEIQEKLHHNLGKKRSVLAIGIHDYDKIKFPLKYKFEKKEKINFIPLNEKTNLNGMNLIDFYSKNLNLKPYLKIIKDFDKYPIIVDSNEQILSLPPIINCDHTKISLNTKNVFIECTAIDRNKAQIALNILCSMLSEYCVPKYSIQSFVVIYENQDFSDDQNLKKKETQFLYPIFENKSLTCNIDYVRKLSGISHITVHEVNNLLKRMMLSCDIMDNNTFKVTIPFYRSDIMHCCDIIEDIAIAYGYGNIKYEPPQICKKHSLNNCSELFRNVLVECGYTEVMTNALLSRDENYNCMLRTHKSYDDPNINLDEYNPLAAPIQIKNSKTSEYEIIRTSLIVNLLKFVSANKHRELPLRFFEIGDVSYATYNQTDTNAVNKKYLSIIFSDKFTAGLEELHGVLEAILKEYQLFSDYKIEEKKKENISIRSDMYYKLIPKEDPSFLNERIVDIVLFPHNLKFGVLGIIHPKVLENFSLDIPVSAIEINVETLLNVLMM
Procedure: These were done using malachite green assay as per earlier published reports[1],[6]. Briefly, the reaction was performed for 100 µM ATP, 50 µM L-phenylalanine and 100 nM recombinant PheRS enzymes (Pf, Pv, Hs, Pf mutant (L550V)) in a buffer containing 30 mM HEPES (pH 7.5), 150 mM, NaCl, 30 mM KCl, 50 mM, MgCl2, 1 mM DTT, and 2 U/ml E. coli inorganic pyrophosphatase (NEB) at 37 °C. Enzymatic reactions (50 μl total volume) were performed in clear, flat-bottomed, 96-well plates (Costar 96-well standard microplates). The reaction mixture was incubated for 2 h at 37 °C. The reaction was stopped by adding 12.5 μl of malachite green solution to the reaction mixture and levels of inorganic phosphate (Pi) were detected after incubation of 5 min at room temperature. Absorbance was the measured at 620 nm using a Spectramax M2 (Molecular Devices). Reactions without FRS enzyme were performed as background controls, values of which were subtracted from the reactions with enzyme. BRD1389 was added to our aminoacylation assay reaction buffer in varying concentrations ranging from 0.1 nM to 10,000 nM. The IC50 value for the data is shown for three replicates as the mean ± SD.
To establish the mode of inhibition of BRD1389, data sets (generated using the malachite Green assay platform as described in the above enzyme inhibition assays method section) were collected by varying both the inhibitor and substrate concentrations.

[1] = tested on: Plasmodium falciparum strain 3D7; assay: Parasite growth inhibition (drug susceptibility test, pLDH readout); assay type: cell-based
Procedure: The cultivation of P. falciparum was conducted according to Trager’s method with some modification. Precisely, parasites were kept in culture flasks with RPMI1640 medium supplemented with 10% human plasma and 2% fresh human erythrocytes and incubated at 37 °C with the gas condition of 5% CO2 and 5% O2. The parasitemia (percentage of infected erythrocytes to total erythrocytes) were kept within 0.25–10%. Culture medium was replaced, and fresh erythrocytes were supplied every 2–3 days. Drug susceptibility test was conducted according to Desjardins’s method[18] with some modification. […] […] The plates were kept at 37 °C with the gas condition of 5% CO2 and 5% O2 for 72 h and then parasite growth was quantified with Makler’s method to detect plasmdoial lactate dehydrogenase[19] with some modification. Precisely, culture plates were kept in freezer overnight and then thawed at 37 °C to disrupt the erythrocytes and parasite cells. In the new 96-well titer plates, 100 μl of enzyme reaction solution (110 mM Li-lactate, 0.5 mM acetylpyridine-adenine dinucleotide, 50 mM Tris (pH 7.5), 10 mM EDTA, 50 mM KCl, and 15 g l^−1 PEG6000) and 20 µl of freeze-thaw culture were mixed in each well and then kept at room temperature for 30 min. The detection solution was prepared by mixing equal volume of 2 mg ml^−1 nitro blue tetrazolium and 0.1 mg ml^−1 phenazine ethosulfate and 20 µl of the solution was added to each well.

[2] = ATP 15.6 uM, saturating L-Phe 1000 μM
[3] = ATP 31.25 uM, saturating L-Phe 1000 μM
[4] = ATP 62.5 uM, saturating L-Phe 1000 μM
[5] = ATP 125 uM, saturating L-Phe 1000 μM
[6] = ATP 250 uM, saturating L-Phe 1000 μM
[7] = ATP 500 uM, saturating L-Phe 1000 μM
[8] = L-Phe 0.015625 mM, saturating ATP 500 μM
[9] = L-Phe 0.031 mM, saturating ATP 500 μM
[10] = L-Phe 0.0625 mM, saturating ATP 500 μM
[11] = L-Phe 0.125 mM, saturating ATP 500 μM
[12] = L-Phe 0.25 mM, saturating ATP 500 μM
[13] = L-Phe 0.5 mM, saturating ATP 500 μM
[14] = L-Phe 1 mM, saturating ATP 500 μM

## COC[C@@H]1[C@H](c2ccc(C#Cc3ccccc3)cc2)[C@@H]2CN(C(=O)Nc3ccc(OC4CC4)cc3)C[C@@H](O)[C@@H](O)CN12 [BRD1389]
PfcFRS; ATP varied, L-Phe saturating, non-competitive inhibition model
  Ki: 10 ± 5 nM
PfcFRS; L-Phe varied, ATP constant, global competitive inhibition model
  Ki: 6 ± 2 nM
PfcFRS; PfcFRS, ATP varied at saturating L-Phe
  Mode of inhibition with respect to ATP: non-competitive inhibition; also recorded: likely a non-competitive inhibitor
PfcFRS; PfcFRS, L-Phe varied at saturating ATP
  Mode of inhibition with respect to L-Phe: competitive inhibition; also recorded: competitive inhibitor
PfcFRS; [2]
  1/v (0.5 × IC50 ): 50.7634
  1/V (1 × IC50 ): 66.6667
PfcFRS; [3]
  1/v (0.5 × IC50 ): 35.2611
  1/V (1 × IC50 ): 44.4444
PfcFRS; [4]
  1/v (0.5 × IC50 ): 25.2226
  1/V (1 × IC50 ): 40.1698
PfcFRS; [5]
  1/v (0.5 × IC50 ): 18.8398
  1/V (1 × IC50 ): 25.8
PfcFRS; [6]
  1/v (0.5 × IC50 ): 16
  1/V (1 × IC50 ): 20
PfcFRS; [7]
  1/v (0.5 × IC50 ): 13.77
  1/V (1 × IC50 ): 13.7741
PfcFRS; [8]
  1/v (0.5 × IC50 ): 19.05
  1/v (1 × IC50 ): 30
PfcFRS; [9]
  1/v (0.5 × IC50 ): 12.5
  1/v (1 × IC50 ): 18.03
PfcFRS; [10]
  1/v (0.5 × IC50 ): 10
  1/v (1 × IC50 ): 12
PfcFRS; [11]
  1/v (0.5 × IC50 ): 8.3
  1/v (1 × IC50 ): 9
PfcFRS; [12]
  1/v (0.5 × IC50 ): 7.2
  1/v (1 × IC50 ): 8
PfcFRS; [13]
  1/v (0.5 × IC50 ): 6.5
  1/v (1 × IC50 ): 7.2
PfcFRS; [14]
  1/v (0.5 × IC50 ): 6.2
  1/v (1 × IC50 ): 7
[1]; 3D7, 0.000976562 ug/mL
  % Parasite Growth: 93.5%
[1]; 3D7, 0.00195312 ug/mL
  % Parasite Growth: 94.1%
[1]; 3D7, 0.00390625 ug/mL
  % Parasite Growth: 94.0%
[1]; 3D7, 0.0078125 ug/mL
  % Parasite Growth: 47.5%
[1]; 3D7, 0.015625 ug/mL
  % Parasite Growth: 14.7%
[1]; 3D7, 0.03125 ug/mL
  % Parasite Growth: 8.9%
[1]; 3D7, 0.0625 ug/mL
  % Parasite Growth: 2.0%
[1]; 3D7, 0.125 ug/mL
  % Parasite Growth: 1.8%
[1]; 3D7, 0.25 ug/mL
  % Parasite Growth: 1.5%
[1]; 3D7, 0.5 ug/mL
  % Parasite Growth: 1.7%
[1]; 3D7, 1 ug/mL
  % Parasite Growth: 2.2%
[1]; Plasmodium falciparum, 3D7
  IC50: 0.00753 µg/mL and 13.3 nM
[1]; Plasmodium falciparum, 3D7, 72 h
  EC50: 13 nM
